Experimental data from patent US20090131513A1, “ANTI-INFLAMMATORY MODALITIES” (Novogen Research Pty Ltd., priority 2005, published 2009).

Tests used:
[1] = tested on: UV irradiation-induced skin oedema; experiment: Murine model of UV irradiation-induced skin oedema; assay type: in vivo, mice (Skh:hr-1 albino); conditions: for Increase in skin thickness (mean ± SD, ×0.01 mm): topical 0.2 ml of 20 μM at 30 min, 2 h, 4 h; for skin oedema, in words: 48 hrs, topical
Excerpt: Groups of 4-5 female Skh:hr-1 albino mice were irradiated with 1×3 MEdD (minimal edematous dose) of solar simulated UV radiation (SSUV). Solar-simulated ultraviolet radiation (SSUV) was provided by a planar bank of 6 UVA tube (Hitachi 40 W F40 T 10/BL, black light) and one UVB tube (Philips TL 40 W/12 RS) with radiation filtered through a sheet of 0.125 mm cellulose acetate (Eastman Chemical Products, Kingport, Term, USA) to give 2.96×10-4 W/cm2 UVA and 1.59×10-5 W/cm2 UVB. During irradiation, the cages were rotated below the lights to reduce the variation in radiation intensity in different positions.
Either test compound (0.2 ml of a 20 μM solution) or vehicle (propylene glycol/ethanol/water 1:2:1) was applied to the irradiated dorsal skin at 30 min, 2 h and 4 h post-irradiation. Dorsal skin fold measurements were made with a spring micrometer prior to and at 24 hr and 48 h post-UV exposure. The difference in skin thickness pre- and post-exposure to UVR was calculated for each mouse, and the differences examined between test compound and vehicle control were analysed using an unpaired two-tailed t test.

[2] = tested on: NO synthesis in mouse macrophage cell line RAW 264.7; experiment: Inhibition of nitric oxide synthesis (Griess reaction); assay type: cell-based; conditions: 10 μM
Protocol: Exposure of various cells (e.g. macrophages and smooth muscle cells) to bacterial LPS and proinflammatory cytokines induces iNOS which generates NO. NO production can be indirectly quantified by measurement of nitrite (NO2—), a stable breakdown product of NO. The mouse macrophage cell line RAW 264.7 was cultured in DMEM supplemented with FCS, 2 mM glutamine and 50 U/ml penicillin/streptomycin. Cells were treated with either test compound at 10 μM (in 0.125% DMSO) or vehicle alone, together with 10 ng/ml LPS. After incubation for 24 hrs, culture media was collected and analysed immediately for NO concentration using the Griess reaction (Eigler et al. 1995).

DSS-induced colitis = experiment: Murine model of DSS-induced colitis; assay type: in vivo, mice (BALB/c); conditions: for maximum mean weight loss: vehicle 5%; for day at which clinical signs became evident: vehicle day 5; for colitis, in words: Experiment 1, 1 mg/kg throughout until day 17; for mean clinical score compared with vehicle, in words: Experiment 1, day 11; for day of switch from mean body weight loss to mean body weight gain: Experiment 1, vehicle day 15; for inflammation, in words: Experiment 2, 1 mg/kg for 10 days prior to DSS only; for colonic inflammation, in words: series of experiments, 1.0-1.25 mg/kg single oral dose per day
Protocol: Female BALB/c mice, 6-7 weeks old, were housed for a minimum of one week before any experimental work began. To induce colitis, dextran sulphate sodium (DSS—molecular weight 40 kD, TdB Consultancy AB, Uppsala, Sweden (Dieleman et al. 1994), was administered fresh daily in the drinking water at a concentration of 4.5-5% for 5 days (Okayasu et al. 1990), after which water alone was given. This regime induced mild colitis, evidenced by diarrhea and rectal bleeding, the severity of which was scored, as well as a reduction in the length of the colon. Histologically, colonic inflammation was evidenced by ulceration and an infiltration of neutrophils into the mucosa, which was also scored. The systemic effect of the colitis causes weight loss, which was also monitored.
Either vehicle (PEG 400:PBS1:1) Compounds 1 or 4 were administered at a dose rate of 1 mg/kg throughout the experiment until the mice were killed at day 17.
Either Compounds 1 and 2, at a dose of 1 mg/kg or vehicle were administered for 10 days prior to DSS being added to the drinking water to induce colitis, after which test compound was stopped. DSS was administered for 5 days and the mice killed 8 days later (day 23).
Either the cis or the trans isomers of Compound 3 (Compound 3a and 3b respectively) at 1.25 mg/kg or vehicle were administered throughout the experiment until the mice were killed at day 17.

[3] = tested on: AA-induced ear inflammation; experiment: Murine ear inflammation induced by arachidonic acid; assay type: in vivo, mice (BALB/c); conditions: for Increase in ear thickness (mean ± SD, ×0.01 mm): 25 mg/kg i/p, 1 hr post-AA application
Excerpt: Compounds were examined for their ability to inhibit ear swelling in mice induced by the topical application of arachidonic acid (AA). The inflammatory response due AA, the immediate precursor of the eicosanoids, is due to formation of AA metabolites via both the cyclooxygenase (COX) and lipoxygenase (LOX) pathways (Young et al. 1984). AA induces an increase in both PGE2 and LTC4 synthesis which precedes the increase in ear thickness (Opas et al. 1985; Chang et al. 1986).
Female BALB/c mice (ARC, WA, Australia), weighing 15-21 g were injected with Compound 2 delivered in polyethylene glycol (PEG) 400:phosphate buffered saline (PBS) 1:1 intraperitoneally (i/p) at a dose of 25 mg/kg either 30 min prior to or immediately before the application of AA to the ears. Mice were anaesthetized using isoflurane and baseline thickness of both ears was measured using a spring micrometer. Each mouse received a total of 20 μL of AA in ethanol (50 mg/ml) applied to the inner and outer surfaces of each pinna (i.e. 0.5 mg AA per ear). Mice were anaesthetized again to remeasure the ears at 1 hr post-AA application.
The difference in ear swelling pre- and post-application of AA for each ear was calculated, and the average for the two ears of each mouse calculated. The difference in mean swelling of each test group compared to the group given vehicle alone was calculated using a two-tailed unpaired t test (Prism 4, GraphPad Software).

[4] = tested on: inflammed rat air pouches (serum-treated zymozan); experiment: Rat air pouch assay; assay type: in vivo, rats (Dark Agouti); conditions: 0.5 ml of 100 μM into pouch; for Polymorphs in tissue sections (per 100 squares): 4 h; for Leucocytes in lavage fluid (×10^−7): lavage at 4 h
Protocol: An alternative assay used to measure anti-inflammatory efficacy is the air pouch model which involves the repeated subcutaneous injection of air into the dorsum of rats followed 24 h later by the intrapouch injection of an inflammatory stimulus (Gilroy et al. 1998).
Air pouches were raised on the dorsum of female Dark Agouti rats, approximately 7 weeks of age. To promote the formation of a cellular membrane lining the inside of each pouch, the pouches were maintained by re-inflating on days 2 and 5 after the initial injection of air. On re-inflation, the pouch was first deflated to ensure the needle was positioned correctly, before being re-inflated with 2 mL of sterile air. Using this protocol, the pouches remained inflated until use on day 7, when they were injected with 0.5 ml of either test compound at 100 μM or vehicle control. After 15 min, air pouches were injected with serum-treated zymozan (STZ-500 μg). Lavage of the air pouch (4×2 ml lavages) was performed at 4 h and leucocytes counted, after which the rats were killed, the air pouch excised and processed in formalin for histology. The sections were blinded to the person counting. Using a graticule with 100 squares and the 40× objective, the number of polymorphs were counted in the pouch lining at 10 different and non-adjacent sites. Group sizes were 5-6 rats. Data were analysed for statistical significance within each experiment and using an unpaired t test.

Compound | Increase in skin thickness (mean ± SD, ×0.01 mm) ([1]; 24 hrs post-irradiation) | Increase in skin thickness (mean ± SD, ×0.01 mm) ([1]; 48 hrs post-irradiation) | skin oedema, in words [1] | NO synthesis, direction of effect in words [2] | colon length compared with vehicle (trend), in words (DSS-induced colitis; Experiment 1, 1 mg/kg oral) | mean histology scores, in words (DSS-induced colitis; Experiment 1, 1 mg/kg oral) | maximum mean weight loss (DSS-induced colitis; Experiment 1, 1 mg/kg oral) | day at which clinical signs became evident (DSS-induced colitis; Experiment 1, 1 mg/kg oral) | colitis, in words (DSS-induced colitis) | mean clinical score compared with vehicle, in words (DSS-induced colitis) | day of switch from mean body weight loss to mean body weight gain (DSS-induced colitis) | inflammation, in words (DSS-induced colitis) | colonic inflammation, in words (DSS-induced colitis) | Increase in ear thickness (mean ± SD, ×0.01 mm) [3] | Polymorphs in tissue sections (per 100 squares) [4] | Leucocytes in lavage fluid (×10^−7) [4] | also measured
O=C1c2ccc(O)c(Br)c2OCC1c1ccc(O)cc1 (stereo not drawn) [Compound 1, 3-(4-hydroxyphenyl)-7-hydroxy-8-bromo-chroman-4-one] | 54 ± 20 ×0.01 mm | 91 ± 7.6 ×0.01 mm | significantly inhibited | inhibited NO synthesis | longer | less colitis | 2% | 6 days | decreased colitis | significantly lower | 10 days | Inflammation was reduced | reduced colonic inflammation | 9.5 ± 2.3 ×0.01 mm | 31.0 ± 7.25 per 100 squares | 0.89 ± 0.42 ×10^−7 | comparative anti-inflammatory activity between test compounds (DSS-induced colitis; Experiment 1, 1 mg/kg): better anti-inflammatory activity; ulceration of the colonic epithelium compared with vehicle (DSS-induced colitis; Experiment 1, 1 mg/kg oral): statistically significant (p=0.0135) less ulceration; colon length versus control group not given DSS (DSS-induced colitis; Experiment 2, pre-dosed 1 mg/kg): not statistically different in length from those of the control group
Oc1ccc(C2COc3c(ccc(O)c3O)C2O)cc1 (stereo not drawn) [Compound 2] | 68 ± 24 ×0.01 mm | 105 ± 22 ×0.01 mm | significantly inhibited | induced it | – | – | – | – | – | – | – | Inflammation was reduced | reduced colonic inflammation | 6.5 ± 2.9 ×0.01 mm | 14.3 ± 5.7 per 100 squares | 0.68 ± 0.36 ×10^−7 | body weight versus vehicle (DSS-induced colitis; Experiment 2, day 22): weighed significantly more than those receiving vehicle (p=0.0291); body weight loss associated with DSS-induced colonic inflammation (DSS-induced colitis; Experiment 2, pre-dosed 1 mg/kg for 10 days): reduced the body weight loss; AA-induced ear inflammation / ear thickness compared with vehicle, in words ([3]; mouse, in vivo): significant reduction in ear thickness
O=C1c2cc(Cl)c(O)cc2OCC1c1ccc(O)cc1 (stereo not drawn) [Compound 4] | 63 ± 22 ×0.01 mm | 145 ± 11 ×0.01 mm | – | induced it | longer | less colitis | 1% | 6 days | decreased colitis | significantly lower | 12 days | – | reduced colonic inflammation | 9.2 ± 3.6 ×0.01 mm | 23.4 ± 8.8 per 100 squares | 1.00 ± 0.38 ×10^−7 | –
